Assay results taken from the supplement of paper PMC10949913.

Tests used:
Assay in all cases: area under concentration-response curve (viability) (AUC (a.u.)); higher = less active
Details in all cases: 48 h
[1] = tested on: NCI-H295R
Outline: (§1)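 Library compounds were tested at 11 concentrations against three adrenocortical carcinoma cell lines in 1,536-well plates. CellTiter-Glo luminescence was read after 48 h and normalised per plate to vehicle and empty-well controls. Only inhibitory or non-responding curve classes from fitted concentration-response curves contributed AC50 and area under the curve.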

[2] = tested on: CU-ACC1
Outline: as §1

[3] = tested on: CU-ACC2
Outline: as §1

Row | SMILES | area under concentration-response curve [1] | area under concentration-response curve [2] | area under concentration-response curve [3]
1 | COC(=O)CCC1=C(C)C2=CC3=NC(=CC4=C(C)C(=C([NH]4)C=C\5N=C(C=C1[NH]2)\C(=C5C)CCC(O)=O)C=C)\C6=C\C=C(/[C@@H](C(=O)OC)[C@@]36C)C(=O)OC | 462 | 438 | 416
2 | Cc1cccc(-c2n[nH]cc2-c2ccc3ncccc3n2)n1 | 524 | 468 | 567
3 | CN[C@@H]1Cc2cccc3[nH]c(=O)n(c23)C1 | 590 | 576 | 659
4 | CCCCC(=O)O[C@@]1([C@@H](C)C[C@H]2[C@@H]3CCC/4=C/C(=O)/C=C\[C@]4(C)[C@@]3(F)[C@@H](O)C[C@]12C)C(=O)CO | 462 | 455 | 555
5 | NCCc1c[nH]cn1 | 548 | 416 | 605
6 | CC(NC1=CC=CC=C1)C\2=C\C(=C/N3C(=O)\C=C(/N=C23)N4CCOCC4)C (centres undefined) | 583 | 414 | 647
7 | CCC(=O)O[C@@]1(CC[C@H]2[C@@H]3CCC/4=C/C(=O)CC[C@]4(C)[C@H]3CC[C@]12C)C(=O)CO | 518 | 508 | 585
8 | Nc1nc(F)nc2c1ncn2[C@@H]1O[C@H](COP(=O)(O)O)[C@@H](O)[C@@H]1O | 514 | 527 | 521
9 | C[C@@H]1C[C@H]2[C@@H]3CCC\4=C\C(=O)\C=C/[C@]4(C)[C@@]3(F)[C@@H](O)C[C@]2(C)[C@@]1(O)C(=O)CO | 481 | 515 | 588
10 | CC(C)(Sc1ccc(CCN(CCCCC2CCCCC2)C(=O)NC2CCCCC2)cc1)C(=O)O | 501 | 506 | 585
11 | CC(=O)OC[C@@H]1O[C@H]([C@H](OC(C)=O)[C@@H]1OC(C)=O)N2\C=C/C(=O)NC2=O | 459 | 497 | 521
12 | C[S+]([O-])(=O)NC1=CC2=C(C=C1OC3=CC=CC=C3)C(=O)\C(=C/O2)NC=O | 487 | 477 | 508
13 | CSCC[C@@H](NC(=O)[C@@H](Cc1ccccc1)NC(=O)CNC(=O)CNC(=O)[C@@H](N)Cc1ccc(O)cc1)C(=O)O | 566 | 535 | 616
14 | C[C@]12C[C@H](O)[C@H]3[C@@H](CC\C4=C\C(=O)\C=C/[C@]34C)[C@@H]1CC[C@]2(O)C(=O)CO | 545 | 496 | 590
15 | O=C(Nc1ccc(-c2ccnc(Nc3ccc(N4CCOCC4)cc3)n2)cc1)C1CCCN1 (centres undefined) | 553 | 501 | 601
16 | Cc1ccc(-c2ccc(C)cn2)nc1 | 384 | 405 | 342
17 | COc1ccc2cc([C@H](C)C(=O)O)ccc2c1 | 524 | 503 | 510
18 | N#C/C(=C\c1ccc(O)c(O)c1)C(=O)NCc1ccccc1 | 572 | 427 | 605
19 | O=C(O)c1cc(O)c2c(c1)C(=O)c1cccc(O)c1C2=O | 582 | 529 | 622
20 | CC[C@H](NC(=O)[C@H](C[S+](=O)([O-])CC1CC1)N[C@@H](c1ccc(F)cc1)C(F)(F)F)C(=O)C(=O)NC1CC1 | 538 | 534 | 510
21 | Nc1nccn2c1c(-c1cc3cccc(Cl)c3[nH]1)nc2[C@H]1CC[C@H](C(=O)O)CC1 | 536 | 498 | 589
22 | C[N+](C)(C)CC(=O)O | 560 | 501 | 611
23 | CC(C)OC(=O)C(C(=O)OC(C)C)=C1S\C=C/S1 | 575 | 517 | 638
24 | CC[S+](=O)([O-])c1ccc2oc(-c3ccc4ccccc4c3)nc2c1 | 514 | 538 | 602

Row | SMILES | area under concentration-response curve [1] | area under concentration-response curve [2] | area under concentration-response curve [3]
25 | COC(c1ccccc1)(c1ccccc1)[C@H](Oc1nc(C)cc(C)n1)C(=O)O | 578 | 531 | 586
26 | O=C1N(c2ccccc2)c2ccccc2C1(Cc1ccncc1)Cc1ccncc1 | 504 | 448 | 543
27 | COc1cc(C(=O)N[S+](=O)([O-])c2ccccc2C)ccc1Cc1cn(C)c2ccc(NC(=O)OC3CCCC3)cc12 | 488 | 513 | 595
28 | S=C1N\C=N/C2=C1[NH]C=N2 | 495 | 438 | 518
29 | C[C@]\1(CCS\C(=N1)N)C2=CC(=C(F)C=C2F)C3=CN=CN=C3 | 509 | 478 | 544
30 | CCNC(=O)Nc1ccc(Oc2ncnc(N)c2/C=N/OC)cc1Cl | 567 | 509 | 645
31 | O=C1N\C=N/C2=C1C=N[NH]2 | 557 | 522 | 531
32 | CC(C)(F)C[C@H](N[C@@H](c1ccc(-c2ccc([S+](C)(=O)[O-])cc2)cc1)C(F)(F)F)C(=O)NC1(C#N)CC1 | 527 | 481 | 587
33 | CC\1=C(C(=O)N(\C=C1)C2=CC=C(C=C2)C3=NC=CO3)/C4=CC5=CN=C(N)N=C5C=C4 | 574 | 547 | 625
34 | Clc1ccc2ncc(-c3cccc(NC4CNC4)n3)n2c1 | 576 | 522 | 644
35 | CC(C)[C@H](CO)Nc1nc(Nc2ccc(C(=O)O)c(Cl)c2)c2ncn(C(C)C)c2n1 | 594 | 529 | 626
36 | OC(=O)C(CC/1=C/C(=O)NC2=CC=CC=C12)NC(=O)C3=CC=C(Cl)C=C3 (centres undefined) | 483 | 521 | 610
37 | NC(=O)c1cccc(-c2cccc(OC(=O)NC3CCCCC3)c2)c1 | 470 | 480 | 485
38 | C[C@H](Nc1ncnc2[nH]cnc12)c1cc2ccc(F)cc2nc1-c1ccccn1 | 512 | 466 | 571
39 | CN(Cc1cnc2nc(N)nc(N)c2n1)c1ccc(C(=O)N[C@@H](CCC(=O)O)C(=O)O)cc1 | 539 | 508 | 615
40 | COc1ccc(-c2ccc3cc(C(=O)O)ccc3c2)cc1C12CC3CC(CC(C3)C1)C2 | 479 | 477 | 518
41 | CCN1\C(=C(C(=O)NC)/C(=O)C2=C1N=C(C=C2)C#CC(C)(O)COC)N (centres undefined) | 510 | 482 | 579
42 | CCCCCCCCCCCCc1ccc([S+](=O)([O-])Nc2nncs2)cc1 | 527 | 543 | 604
43 | C#Cc1cccc(Nc2ncnc3cc4c(cc23)OCCOCCOCCO4)c1 | 546 | 462 | 599
44 | O=NN(CCCl)C(=O)NCCCl | 466 | 454 | 522
45 | CN1C(=O)/C=C(/NCCN(CCO)CCCC2=CC=C(C=C2)[N+]([O-])=O)N(C)C1=O | 586 | 544 | 643
46 | NCC/1=C/NC(=S)N1[C@H]2CCC3=C(F)C=C(F)C=C3C2 | 550 | 495 | 547
47 | CCOC(=O)\C1=C\[C@@H](OC(CC)CC)[C@H](NC(C)=O)[C@@H](N)C1 | 547 | 508 | 602
48 | CC(=O)OCC(=O)[C@@]1(O)CC[C@H]2[C@@H]3CCC/4=C/C(=O)/C=C\[C@]4(C)[C@H]3[C@@H](O)C[C@]12C | 506 | 460 | 471
